Measured values from patent publication US20040053282A1, “Method of examining allergic disease” (priority 2000, published 2004).

Assays:
mouse intersectin 2 gene = assay: Intersectin 2 gene expression in ear tissue of DNFB-coated mouse allergic reaction model (TaqMan, ABI 7700); assay type: in vivo; settings: mouse ear tissue mRNA, day 6, corrected with 18S gene, value of CONT. taken as 1; four mice each; prednisolone oral day 0 to day 6
Procedure: Using a 2,4-dinitrofluorobenzene (DNFB) coated mouse as a model for an allergic reaction, changes in the expression level of the intersectin 2 gene in the mouse were observed. DNFB is a substance that is used as a hapten to cause allergic dermatitis reaction in a laboratory animal such as a mouse.
Day 0: The abdominal region was shaved by an electric clipper and 25 μL of the sensitizing solution was applied to the abdominal region.
Day 1: In a similar manner to the previous day, 25 μL of the sensitizing solution was applied to the abdominal region.
Day 5: 5 μL/ear of challenge solution was applied to both ears. […]
The expression level of the intersectin 2 gene was quantified by the TaqMan method (as mentioned above) using ABI 7700 and using mRNA sample extracted from the mouse ear tissue. […]
PCR was carried out using 25 μL of 2× Master Mix without UNG, 1.25 μL of 40×MultiScribe and RNase Inhibitor Mix, 0.25 μL of 10 μM primer, and 0.625 μL of 4 μM TaqMan Probe derived from One-step RT-PCR Master Mix Reagents (PE Biosystems), and RNA (2 ng)+DEPC resulting in total volume of 50 μL. […] To correct the differences of cDNA concentration among the samples, a similar quantitative analysis was performed on the 18S gene, and the value for the gene of interest was divided by the value for 18S, and indicated as taking the value of CONT. as 1. […]

[1] = test system: "1835-17" (intersectin 2 gene); assay: Change in gene expression in human peripheral blood eosinophils due to stimulation by cytokines (TaqMan, ABI 7700); assay type: cell-based; settings: eosinophils of a healthy subject, cytokine 0.1, 1 and 10 ng/ml, 3 hours culture, GAPDH corrected, FIG. 4
Procedure: The change in gene expression due to cytokine stimulation in eosinophils isolated from 100 ml of peripheral blood from a healthy subject was studied. Isolation of eosinophils was carried out as described above. Eosinophils were plated onto a 24-well plate (1×10^6 cells/mL). The plate was pre-coated with 1% BSA (immobilizing blocking buffer) at room temperature for 2 hours in order to prevent activation due to adhesion of eosinophils. As cytokines, 0.1, 1, and 10 ng/ml each of interleukin 5 (IL-5), interleukin 4 (IL-4), interferon γ (IFNγ), granulocyte macrophage colony stimulating factor (GM-CSF), and eotaxin were added to each well, and this was cultured for 3 hours in DMEM supplemented with 10% FCS. All of these cytokines are those considered to be related to activation of eosinophils and onset of allergies.
RNAs were prepared in the same manner as in Example 1 for each of the treated eosinophils, and were subjected to gene expression analysis. The primers, probes, and such used were the same as described above. The result at 3 hours after starting the culture is shown in FIG. 4 (value was corrected with GAPDH for the number of copies per 1 ng of RNA).

Molecule	relative expression level of intersectin 2 gene (Average) (mouse intersectin 2 gene)	expression of "1835-17" (intersectin 2 gene) [1]
O=[N+]([O-])c1ccc(F)c([N+](=O)[O-])c1 [DNFB, 2,4-dinitrofluorobenzene]	2.04	–
C[C@]12C=CC(=O)C=C1CC[C@@H]1[C@@H]2[C@@H](O)C[C@@]2(C)[C@H]1CC[C@]2(O)C(=O)CO [S, prednisolone]	1.04	–
IL-5: cytokine interleukin 5	–	increases
IL-4: cytokine interleukin 4 (protein, UniProt P05112 25-153, looked up) Interleukin-4: HKCDITLQEIIKTLNSLTEQKTLCTELTVTDIFAASKNTTEKETFCRAATVLRQFYSHHEKDTRCLGATAQQFHRHKQLIRFLKRLDRNLWGLAGLNSCPVKEANQSTLENFLERLKTIMREKYSKCSS	–	induced
IFNγ: cytokine interferon γ (protein, UniProt P01579 24-161, looked up) Interferon gamma: QDPYVKEAENLKKYFNAGHSDVADNGTLFLGILKNWKEESDRKIMQSQIVSFYFKLFKNFKDDQSIQKSVETIKEDMNVKFFNSNKKKRDDFEKLTNYSVTDLNVQRKAIHELIQVMAELSPAAKTGKRKRSQMLFRG	–	induced
